From PMC4105339 (Antiviral research, 2014)
Marks after values point to notes of the source that are not given here.

Legend:
[1] = test system: A/Mississippi/03/01 H1N1 wild type neuraminidase
[2] = test system: H5N1 clade 1 A/Chicken/Vietnam/08/2004 neuraminidase; conditions: 37°C
[3] = test system: H5N1 clade 2 A/Chicken/Bangli/BBVD-563/2007 neuraminidase; conditions: 37°C
[4] = test system: A/Fukui/45/04 H3N2 wild type neuraminidase
[5] = test system: human influenza A strains (neuraminidase)
[6] = target: B/Perth/211/01 wild type neuraminidase; conditions: cited from earlier work
[7] = test system: B/Perth/211/01 influenza B wild type neuraminidase
[8] = test system: wild type viruses (neuraminidase)
[9] = target: clade 1 H5N1 neuraminidase; conditions: cited from earlier work
[10] = target: clade 2 H5N1 neuraminidase; conditions: cited from earlier work
[11] = test system: H3N2 wild type neuraminidase; conditions: cited from earlier work

SMILES	Time (T½) for reaction rates to reach half the maximum rate of the uninhibited control [1]	Time (T½) for reaction rates to reach half the maximum rate of the uninhibited control [2]	Time (T½) for reaction rates to reach half the maximum rate of the uninhibited control [3]	Time (T½) for reaction rates to reach half the maximum rate of the uninhibited control [4] [h]	T½ values [5] [h]	IC50 [6] [nM]	Time (T½) for reaction rates to reach half the maximum rate of the uninhibited control [7]	T½ (range over viruses) [8] [h]	IC50 [9] [nM]	increase in IC50 from 10 to 60 min after addition of substrate in the preincubation reaction [9] [fold]	IC50 [10] [nM]	increase in IC50 from 10 to 60 min after addition of substrate in the preincubation reaction [10] [fold]	changes in IC50 from 10 to 60 min in the preincubation reaction [11] [fold]
CCC(CC)[C@H](NC(C)=O)[C@@H]1[C@H](O)[C@@H](C(=O)O)C[C@H]1N=C(N)N [Peramivir, peramivir]	>240^* min	59.9 min	84.4 min	>4	> 4	2.8							
CC(=O)N[C@H]1[C@H]([C@H](O)[C@H](O)CO)OC(C(=O)O)=C[C@@H]1N=C(N)N [Zanamivir]	41.3 min	27.7^* min	72.8^* min			8.9	24.6^* min	0.467 to 1.82	2.1	4.5	1.3	2.2	1.3
